Reference: US6906097B2, “8-azaprostaglandin analogs as agents for lowering intraocular pressure” (Allergan, Inc., priority 2002, dated 2005)

Key:
Format in all cases: cell-based
hEP1 = molecular target: T1, hEP1 (Homo sapiens, UniProt P34995); assay: Functional data, human recombinant EP1 receptor stable transfectants
T1 construct: expressed in transfected cells
T1 sequence (P34995 1-402): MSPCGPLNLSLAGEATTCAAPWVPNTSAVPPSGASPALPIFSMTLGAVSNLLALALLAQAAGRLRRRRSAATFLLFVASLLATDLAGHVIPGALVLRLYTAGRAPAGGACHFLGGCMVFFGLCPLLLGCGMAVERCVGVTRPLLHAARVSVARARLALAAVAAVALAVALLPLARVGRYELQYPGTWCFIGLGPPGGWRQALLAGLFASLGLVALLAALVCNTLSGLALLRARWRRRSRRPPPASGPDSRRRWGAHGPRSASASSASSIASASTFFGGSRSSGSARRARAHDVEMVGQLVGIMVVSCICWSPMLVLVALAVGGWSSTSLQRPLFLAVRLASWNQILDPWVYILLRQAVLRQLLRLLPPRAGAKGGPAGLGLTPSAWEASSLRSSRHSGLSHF
Method: (§1) Human Recombinant EP1, EP2, EP3, EP4, FP, TP, IP and DP Receptors: Stable Transfectants
(§2) Plasmids encoding the human EP1, EP2, EP3, EP4, FP, TP, IP and DP receptors were prepared by cloning the respective coding sequences into the eukaryotic expression vector pCEP4 (Invitrogen). The pCEP4 vector contains an Epstein Barr virus (EBV) origin of replication, which permits episomal replication in primate cell lines expressing EBV nuclear antigen (EBNA-1). It also contains a hygromycin resistance gene that is used for eukaryotic selection. The cells employed for stable transfection were human embryonic kidney cells (HEK-293) that were transfected with and express the EBNA-1 protein. These HEK-293-EBNA cells (Invitrogen) were grown in medium containing Geneticin (G418) to maintain expression of the EBNA-1 protein. HEK-293 cells were grown in DMEM with 10% fetal bovine serum (FBS), 250 μg ml^−1 G418 (Life Technologies) and 200 μg ml^−1 gentamicin or penicillin/streptomycin.
(§3) For transfection, the cells were grown to 50-60% confluency on 10 cm plates. The plasmid pCEP4 incorporating cDNA inserts for the respective human prostanoid receptor (20 μg) was added to 500 μl of 250 mM CaCl2. HEPES buffered saline×2 (2×HBS, 280 mM NaCl, 20 mM HEPES acid, 1.5 mM Na2 HPO4, pH 7.05-7.12) was then added dropwise to a total of 500 μl, with continuous vortexing at room temperature. After 30 min, 9 ml DMEM were added to the mixture. The DNA/DMEM/calcium phosphate mixture was then added to the cells, which had been previously rinsed with 10 ml PBS. The cells were then incubated for 5 hr at 37° C. in humidified 95% air/5% CO2. The calcium phosphate solution was then removed and the cells were treated with 10% glycerol in DMEM for 2 min. The glycerol solution was then replaced by DMEM with 10% FBS. The cells were incubated overnight and the medium was replaced by DMEM/10% FBS containing 250 μg ml^−1 G418 and penicillin/streptomycin. The following day hygromycin B was added to a final concentration of 200 μg ml^−1.
(§4) Ten days after transfection, hygromycin B resistant clones were individually selected and transferred to a separate well on a 24 well plate. At confluence each clone was transferred to one well of a 6 well plate, and then expanded in a 10 cm dish. Cells were maintained under continuous hygromycin selection until use.

hTP = molecular target: T2, hTP (Homo sapiens, UniProt P21731); assay: Functional data, human recombinant TP receptor stable transfectants
T2 construct: expressed in transfected cells
T2 sequence (P21731 1-343): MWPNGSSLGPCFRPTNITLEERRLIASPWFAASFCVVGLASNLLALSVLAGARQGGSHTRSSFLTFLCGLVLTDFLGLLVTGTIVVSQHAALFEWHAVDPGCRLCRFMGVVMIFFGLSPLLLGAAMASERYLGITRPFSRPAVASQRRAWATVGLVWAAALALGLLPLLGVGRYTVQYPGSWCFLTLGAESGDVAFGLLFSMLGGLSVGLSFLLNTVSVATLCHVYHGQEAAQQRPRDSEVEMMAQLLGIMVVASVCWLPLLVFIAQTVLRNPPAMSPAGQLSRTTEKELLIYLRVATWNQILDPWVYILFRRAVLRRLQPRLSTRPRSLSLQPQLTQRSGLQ
Method: as §1, §2, §3, §4

hEP3A = molecular target: T3, hEP3A (Homo sapiens, UniProt P43115); assay: Functional data, human recombinant EP3A receptor stable transfectants
T3 construct: expressed in transfected cells
T3 sequence (P43115 1-390): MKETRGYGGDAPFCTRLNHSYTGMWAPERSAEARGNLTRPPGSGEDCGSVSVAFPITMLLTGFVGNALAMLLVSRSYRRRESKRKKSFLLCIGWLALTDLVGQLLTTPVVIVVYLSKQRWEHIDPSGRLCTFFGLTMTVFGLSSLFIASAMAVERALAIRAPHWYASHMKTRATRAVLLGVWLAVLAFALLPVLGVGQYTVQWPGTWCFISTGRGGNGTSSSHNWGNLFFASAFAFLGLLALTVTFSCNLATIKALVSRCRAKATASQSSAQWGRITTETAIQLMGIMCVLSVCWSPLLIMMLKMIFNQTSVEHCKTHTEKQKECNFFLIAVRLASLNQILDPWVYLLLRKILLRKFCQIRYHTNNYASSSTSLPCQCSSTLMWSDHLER
Method: as §1
as §2, with “The cells employed for stable transfection were human embryonic kidney cells (HEK-293) that were transfected with and express the EBNA-1 protein. These HEK-293-EBNA cells (Invitrogen) were grown in medium containing Geneticin (G418) to maintain expression of the EBNA-1 protein.” left out
as §3, with “HEPES buffered saline×2 (2×HBS, 280 mM NaCl, 20 mM HEPES acid, 1.5 mM Na2 HPO4, pH 7.05-7.12) was then added dropwise to a total of 500 μl, with continuous vortexing at room temperature.” left out
as §4

O=C(O)CCCCCCN1C(=O)CC[C@@H]1CCC(O)Cc1cccc(Cl)c1 (stereo partly drawn) [Example 1, 7-[2S-[3R-Hydroxy-4-(chloro-phenyl)-butyl]-5-oxo-pyrrolidin-1-yl]-heptanoic acid]
EC50 (hEP1): > 10 µM | EC50 (hTP): > 10 µM | EC50 (hEP3A): 0.608 µM
